Test results taken from paper PMC6461504 (ACS infectious diseases, 2019).
Read-outs that look alike come from different tables or passages of the source.

Tests used:
[1] = biological target: T1, S. aureus gyrase (Staphylococcus aureus, UniProt P0A0K8+P20831); test: DNA cleavage competition assay, gepotidacin vs moxifloxacin; type: biochemical; conditions: 100 μM gepotidacin plus 25 μM moxifloxacin
[2] = biological target: T1, S. aureus gyrase
[3] = test system: negatively supercoiled pBR322 DNA; test: DNA cleavage control without gyrase; conditions: 200 μM gepotidacin, 3 h incubation, no gyrase
[4] = biological target: S. aureus gyrase-DNA cleavage complexes (Staphylococcus aureus, UniProt P0A0K8+P20831); test: Stability; conditions: 5 μM gepotidacin, 20-fold dilution into buffer lacking divalent metal ion
S. aureus gyrase-DNA cleavage complexes, sequence (P20831 whole entry): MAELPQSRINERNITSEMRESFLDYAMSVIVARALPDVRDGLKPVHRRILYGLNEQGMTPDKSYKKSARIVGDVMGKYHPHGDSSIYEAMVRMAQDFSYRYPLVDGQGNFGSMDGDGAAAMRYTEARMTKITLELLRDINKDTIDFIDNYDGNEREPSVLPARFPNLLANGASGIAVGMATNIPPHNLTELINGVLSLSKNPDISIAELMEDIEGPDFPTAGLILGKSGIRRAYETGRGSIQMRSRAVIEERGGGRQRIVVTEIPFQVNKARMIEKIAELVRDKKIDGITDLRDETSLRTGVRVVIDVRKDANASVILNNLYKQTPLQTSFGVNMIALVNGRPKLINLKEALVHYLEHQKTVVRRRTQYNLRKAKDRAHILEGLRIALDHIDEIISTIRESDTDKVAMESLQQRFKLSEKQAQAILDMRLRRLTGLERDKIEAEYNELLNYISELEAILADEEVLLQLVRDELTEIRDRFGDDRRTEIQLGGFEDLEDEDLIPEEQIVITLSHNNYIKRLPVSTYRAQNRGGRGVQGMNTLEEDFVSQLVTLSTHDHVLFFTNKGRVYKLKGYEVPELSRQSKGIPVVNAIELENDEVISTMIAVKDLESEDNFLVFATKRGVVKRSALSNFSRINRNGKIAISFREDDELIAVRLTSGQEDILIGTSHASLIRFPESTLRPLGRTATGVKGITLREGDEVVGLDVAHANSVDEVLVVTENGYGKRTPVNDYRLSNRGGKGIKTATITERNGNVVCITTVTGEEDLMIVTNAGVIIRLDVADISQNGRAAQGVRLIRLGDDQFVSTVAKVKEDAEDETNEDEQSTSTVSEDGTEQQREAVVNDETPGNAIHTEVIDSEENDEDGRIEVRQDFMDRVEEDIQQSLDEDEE
S. aureus gyrase-DNA cleavage complexes, sequence (P0A0K8 whole entry): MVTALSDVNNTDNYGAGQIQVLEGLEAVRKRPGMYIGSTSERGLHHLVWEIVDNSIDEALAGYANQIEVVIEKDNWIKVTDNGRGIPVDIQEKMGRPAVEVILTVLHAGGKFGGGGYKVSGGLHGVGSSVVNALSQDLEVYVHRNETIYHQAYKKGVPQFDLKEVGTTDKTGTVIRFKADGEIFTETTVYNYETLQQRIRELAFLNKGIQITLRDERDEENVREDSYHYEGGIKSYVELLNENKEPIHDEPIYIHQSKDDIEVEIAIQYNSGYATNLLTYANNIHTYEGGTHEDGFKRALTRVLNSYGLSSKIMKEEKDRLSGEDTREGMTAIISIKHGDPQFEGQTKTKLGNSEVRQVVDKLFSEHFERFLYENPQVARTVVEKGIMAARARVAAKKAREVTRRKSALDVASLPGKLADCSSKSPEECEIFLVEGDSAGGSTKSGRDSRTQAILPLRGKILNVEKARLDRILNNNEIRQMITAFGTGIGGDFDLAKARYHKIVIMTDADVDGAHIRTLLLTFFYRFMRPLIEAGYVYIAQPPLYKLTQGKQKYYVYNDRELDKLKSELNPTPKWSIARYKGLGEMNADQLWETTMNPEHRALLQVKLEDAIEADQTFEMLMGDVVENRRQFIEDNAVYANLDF

T1 sequence (P0A0K8 whole entry): as above
T1 sequence (P20831 whole entry): as the sequence (P20831 whole entry) above

Row | SMILES | drop in levels of moxifloxacin-induced double-stranded breaks [1] | type of DNA breaks at high concentration ([2]; 200 μM, time course 6 times longer than standard) | gyrase-mediated double-stranded DNA cleavage ([2]; 1.5 mM ATP) | type of DNA breaks created ([2]; 5 or 200 μM, negatively supercoiled DNA) | effect on double-stranded DNA cleavage in the presence of Ca2+ ([2]; MgCl2 replaced by CaCl2, increasing gepotidacin concentrations) | gyrase-mediated double-stranded DNA breaks ([2]; high gepotidacin concentration, long cleavage times, or presence of ATP) | levels of single-stranded breaks, positively vs negatively supercoiled plasmid ([2]; lower with positively supercoiled plasmid) | single-stranded DNA breaks, share of the initial substrate ([2]; negatively supercoiled plasmid, low micromolar concentrations) | gyrase-mediated double-stranded DNA breaks ([2]; positively supercoiled DNA) | DNA cleavage when gyrase was left out [3] | stability of gyrase-DNA cleavage complexes [4] [h] | fall in potency with positively vs negatively supercoiled substrates ([2]; double-stranded breaks)
1 | O=c1ccc2ncc(=O)n3c2n1C[C@H]3CN1CCC(NCc2cc3c(cn2)OCCC3)CC1 [Gepotidacin] | ~ 95% | only single-stranded breaks were observed | no double-stranded DNA cleavage was observed | all of the breaks created in the presence of gepotidacin were single-stranded | coordinate decrease in levels of double-stranded DNA cleavage | No double-stranded breaks were observed | ~ 2 fold | more than 30% | no double-stranded breaks were observed | no DNA cleavage was observed | > 4 | 
2 | COc1c(N2C[C@@H]3CCCN[C@@H]3C2)c(F)cc2c(=O)c(C(=O)O)cn(C3CC3)c12 [moxifloxacin, reference compound] |  |  |  |  |  |  |  |  |  |  |  | ~ 8 fold
